Source: patent US7868135B2, “Compositions of lipopeptide antibiotic derivatives and methods of use thereof” (priority 2003, dated 2011)
Like-named read-outs stand apart in the source and are kept apart here.

Key:
[1] = tested on: Staphylococcus aureus (MSSA)
In short: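 Broth microdilution MIC per NCCLS M7-A6 with doubling serial dilutions, in cation-adjusted Mueller-Hinton broth supplemented with 0.625 mM calcium.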

[2] = In vivo half-life after single i.v. administration, mice; conditions: female, Swiss CD1, mouse, plasma, iv, 10 mg/kg
Method: Yet other exemplary in vivo models can be used to characterize the pharmacokinetics and pharmacodynamic parameters of antimicrobial compounds of this disclosure. Some parameters that can be measured include an in vivo half-life of a compound, elimination rate and clearance, volume of distribution, and bioavailability. For example, briefly, compounds can be administered as a single i.v. or oral (p.o.) dose in mice or rats. At various time points (ranging from 1 minute to 72 hours), blood from treated animals is collected and the concentration of lipopeptide derivative in the ex vivo plasma can be quantified by, for example, liquid chromatography with mass spectrometric detection (LC/MS). After quantification, pharmacokinetics parameters can be calculated using methods known in the art, such as a one compartment model with mono-exponential decay and linear regression analysis (see, e.g., Fantin et al., Antimicrob. Agents Chemotherap. 35: 1413. 1991).
A pharmacokinetic parameter that can be measured, and which aids in determining efficacy, after a single i.v. administration of an antimicrobial lipopeptide derivative of the instant disclosure is the systemic half-life of the compound. Briefly, test compounds were dissolved in a 5% mannitol solution (pH was then adjusted) to a concentration of 1 mg/mL (w/v). A single intravenous injection in the lateral caudal vein of Swiss CD1 mice (5 to 6 weeks old, female) or Sprague Dawley rats (male) was used to administer the lipopeptide derivative at a final dose of 10 mg/kg. At various time points (ranging from about 4 minutes to about 24 hours for mice, and 48 or 72 hours for rats) mice were sacrificed and blood was harvested. The concentration of lipopeptide derivative in ex vivo plasma was quantified using liquid chromatography (LC) with mass spectrometric detection (MS).

[3] = tested on: S. aureus Smith (SAU0017, ATCC 19636); test: Intraperitoneal murine model of protection against infection (ED50, Table 21); assay type: in vivo, Staphylococcus aureus; conditions: Swiss CD1 mice infected i.p., compound i.v.
Text: A variety of in vivo models may be used to assess the antimicrobial properties of lipopeptide derivative compounds of this disclosure. For example, antimicrobial compounds of the instant disclosure may be tested for efficacy by measuring a compound's ability to protect a mouse against a microbial infection, such as an infection or disease caused by or related to Gram-positive bacteria, including Staphylococcus aureus, Streptococcus pneumoniae, and Enterococcus faecalis. […] A certain period after infection, mice are then individually treated, for example intravenously (i.v.), with a lipopeptide derivative of this disclosure.
Antimicrobial lipopeptide derivatives of the instant invention were tested for antimicrobial activity against Gram-positive bacteria in an intraperitoneal (i.p.) murine model (i.e., bacteria were injected i.p. and lipopeptide compounds were administered intravenously (i.v.)). Mice were infected with Staphylococcus aureus, Streptococcus pneumoniae, or Enterococcus faecalis, which were prepared as follows: S. aureus Smith (SAU0017, ATCC 19636) were grown in culture overnight on trypticase soy broth, harvested and then resuspended in fresh media containing 5% mucin (Sigma Chemical Co.); S. pneumoniae (SPN 0032, ATCC 10813) were grown overnight on blood agar plates and re-suspended in 0.9% sterile saline; and E. faecalis EFS0040 (clinical isolate) were grown overnight in culture on blood heart infusion broth, washed and resuspended in 0.9% saline and mixed with equal volume of sterile fecal rat extract. Swiss CD1 mice were each infected i.p. with bacteria at the following doses: S. aureus at 10^6 CFU/mouse; S. pneumoniae at 10^2 CFU/mouse; or E. faecalis at 10^7.5 CFU/mouse. […] The ED50 for each compound was calculated using the method of Reed and Meunch (Am. J. Hyg. 27: 493, 1938).

[4] = tested on: Staphylococcus aureus SAU0017 (MSSA); test: Broad spectrum MIC, Table 17/18 columns E, F (+ 0.625 mM calcium; + calcium and 30% bovine serum); assay type: cell-based; conditions: in µg/mL; for MIC, media condition E: condition E: + 0.625 mM calcium; for MIC, media condition F: condition F: + calcium and 30% bovine serum
Method: (§1) The antimicrobial lipopeptide derivatives described herein were tested for antimicrobial activity against Gram-positive bacteria as follows. The minimum inhibitory concentrations (MIC) of the antimicrobial lipopeptide derivatives of the invention were determined using NCCLS guidelines M7-A6 (2003) with a slight modification in that doubling serial dilutions were used to dilute the test compounds. The broth phase microdilution method was used. Isolated colonies of Staphylococcus aureus (MSSA) from an 18-24 hour blood agar plate cultures were used to inoculate cation adjusted Mueller-Hinton broth (CAMHB) supplemented with 0.625 mM calcium. […] A negative control containing media alone and a positive growth control containing bacteria with media alone were also included. MICs were determined after incubating the plates at about 37° C. for 24 hours. […] In Tables 1 to 16, R is the core cyclic peptide of amphomycin or aspartocin, which can be in the form of a β-isomer, an anhydro, a dianhydro, or any combination thereof. […] Furthermore, a person of skill in the art will appreciate that all the pounds, or groups of compounds, derived from the various combinations of and substituents shown in Tables 1 to 16, are disclosed by the present the same extent as if each compound or group of compounds was set forth individually.
(§2) Antimicrobial lipopeptide derivatives of the instant invention were tested for antimicrobial activity against Gram-positive bacteria in a variety of media conditions. The […] (MIC) of the antimicrobial lipopeptide derivatives were determined as described in Example 376. The various media used are described in Table 17.

[5] = tested on: Staphylococcus epidermidis SEP0375 (MRSE); test: Broad spectrum MIC, Table 17/18 column I; assay type: cell-based; conditions: condition I of Table 17, in µg/mL
Method: as §1, §2

[6] = tested on: Streptococcus pneumoniae SPN0023 (PRSP); test: Broad spectrum MIC, Table 17/18 column K; assay type: cell-based; conditions: condition K of Table 17, in µg/mL
Method: as §1, §2

[7] = tested on: Staphylococcus aureus SAU0065 (MRSA); test: Broad spectrum MIC, Table 17/18 column H; assay type: cell-based; conditions: condition H of Table 17, in µg/mL
Method: as §1, §2

[8] = tested on: Streptococcus pneumoniae SPN0002 (PISP); test: Broad spectrum MIC, Table 17/18 column J; assay type: cell-based; conditions: condition J of Table 17, in µg/mL
Method: as §1, §2

[9] = tested on: Enterococcus faecalis EFS0004 (VSE); test: Broad spectrum MIC, Table 17/18 B, C, D (CAMHB; + 0.625 mM calcium; + calcium and 30% bovine serum); assay type: cell-based; conditions: in µg/mL; for MIC, media condition B: condition B: CAMHB; for MIC, media condition C: condition C: + 0.625 mM calcium; for MIC, media condition D: condition D: + calcium and 30% bovine serum
Method: as §1, §2

[10] = tested on: Streptococcus pneumoniae SPN0032 (PSSP); test: Broad spectrum MIC, Table 17/18 column L; assay type: cell-based; conditions: condition L of Table 17, in µg/mL
Method: as §1, §2

[11] = tested on: Streptococcus pyogenes SPY0001 (PenS); test: Broad spectrum MIC, Table 17/18 column M; assay type: cell-based; conditions: condition M of Table 17, in µg/mL
Method: as §1, §2

[12] = tested on: Staphylococcus aureus SAU0031 (VISA); test: Broad spectrum MIC, Table 17/18 column G; assay type: cell-based; conditions: condition G of Table 17, in µg/mL
Method: as §1, §2

[13] = tested on: Enterococcus faecium EFM0101 (VRE, MDR); test: Broad spectrum MIC, Table 17/18 column A; assay type: cell-based; conditions: condition A of Table 17, in µg/mL
Method: as §1, §2

Compound | MIC ([1]; S. aureus (MSSA), CAMHB supplemented with 0.625 mM calcium, 24 hours at about 37° C., a range = compound tested multiple times) | half-life [2] | ED50 in Mice, S. aureus (SAU0017) [3] | MIC, media condition E [4] | MIC, media condition F [4] | MIC ([1]; 24 h) | MIC, media condition I [5] | MIC, media condition K [6] | MIC, media condition H [7] | MIC, media condition J [8] | MIC, media condition B [9] | MIC, media condition C [9] | MIC, media condition D [9] | MIC, media condition L [10] | MIC, media condition M [11] | MIC, media condition G [12] | MIC, media condition A [13]
CCCCCCCCCCCCCC(=O)NC(CC(=O)O)C(=O)NC1C(=O)N2CCCCC2C(=O)NC(C(C)C(=O)O)C(=O)NC(CC(=O)O)C(=O)NCC(=O)NC(CC(=O)O)C(=O)NCC(=O)NC(C(C)NC(=O)CNC)C(=O)NC(C(C)C)C(=O)N2CCCC2C(=O)NC1C (stereo not drawn) [Compound 60, C14-Amphomycin-9-Sar] | 60/0.5 μg/mL | 4.13 h | 10 mg/kg |  |  |  |  |  |  |  |  |  |  |  |  |  | 
CCCCCCCCCCCCC(=O)NC(CC(=O)O)C(=O)NC1C(=O)N2CCCCC2C(=O)NC(C(C)C(=O)O)C(=O)NC(CC(=O)O)C(=O)NCC(=O)NC(CC(=O)O)C(=O)NCC(=O)NC(C(C)NC(=O)CNC(=O)[C@@H](N)CCCCN)C(=O)NC(C(C)C)C(=O)N2CCCC2C(=O)NC1C (stereo partly drawn) [Compound 128, C13-Amphomycin-9-Gly-Lys] |  | 0.198 h | 6.2 mg/kg |  |  |  |  |  |  |  |  |  |  |  |  |  | 
CCCCCCCCCCCCCCNC(=O)NC(CC(=O)O)C(=O)NC1C(=O)N2CCCCC2C(=O)NC(C(C)C(=O)O)C(=O)NC(CC(=O)O)C(=O)NCC(=O)NC(CC(=O)O)C(=O)NCC(=O)NC(C(C)N)C(=O)NC(C(C)C)C(=O)N2CCCC2C(=O)NC1C (stereo not drawn) [Compound 253, CH3—(CH2)13—NH—C(═O)-Amphomycin] |  | 5.15 h | 4.8 mg/kg | 0.5-1 | 2-4 | 0.5 to 1 µg/mL | 1 | 0.125 | 1-2 | 0.125 | 1 | 0.5-1 | 16-32 | 0.125 | 0.25 | 2-4 | 0.5-1
CCCCCCCCCCCCNC(=O)NC(CC(=O)O)C(=O)NC1C(=O)N2CCCCC2C(=O)NC(C(C)C(=O)O)C(=O)NC(CC(=O)O)C(=O)NCC(=O)NC(CC(=O)O)C(=O)NCC(=O)NC(C(C)NC(=O)CNC)C(=O)NC(C(C)C)C(=O)N2CCCC2C(=O)NC1C (stereo not drawn) [Compound 98, CH3—(CH2)11—NH—C(═O)-Amphomycin-9-Sar] |  |  |  | 0.5 | 16 | 0.5 µg/mL | 1 | 0.25 | 1 | 0.125 | 32 | 4 | >64 | 0.5 | 0.5 | 4 | 2
CCCCCCCCCCCCOc1ccc(C(=O)NC(CC(=O)O)C(=O)NC2C(=O)N3CCCCC3C(=O)NC(C(C)C(=O)O)C(=O)NC(CC(=O)O)C(=O)NCC(=O)NC(CC(=O)O)C(=O)NCC(=O)NC(C(C)N)C(=O)NC(C(C)C)C(=O)N3CCCC3C(=O)NC2C)cc1 (stereo not drawn) [Compound 15, CH3—(CH2)11—O-p-Ph-C(═O)-Amphomycin] |  |  |  | 2-4 | 32 | 2 to 4 µg/mL | 2-4 | 0.125-0.5 | 2-8 | 0.125-1 | 2-4 | 1-4 | >64 | 0.25-1 | 0.5-2 | 4-8 | 2-4
CCCCCCCCCCCCNC(=O)NC(CC(=O)O)C(=O)NC1C(=O)N2CCCCC2C(=O)NC(C(C)C(=O)O)C(=O)NC(CC(=O)O)C(=O)NCC(=O)NC(CC(=O)O)C(=O)NCC(=O)NC(C(C)NC(=O)CN)C(=O)NC(C(C)C)C(=O)N2CCCC2C(=O)NC1C (stereo not drawn) [Compound 92, CH3—(CH2)11—NH—C(═O)-Amphomycin-9-Gly] |  |  |  | 0.25-0.5 | 8 | 0.25 to 0.5 µg/mL | 0.5-1 | 0.125 | 1-2 | 0.25 | 6-16 | 2-4 | 64 | 0.25 | 0.25 | 4 | 1-2
